Results as given in ChEMBL document CHEMBL1201862, “PubChem BioAssay data set” (2004).
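Five concentrations, 48 hours, 96-well plates. The concentration for 50% growth inhibition is given as GI50.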 Calls of active or inactive are those of the source. Rule as the data show it: active = GI50 up to about 1.1 µM and inactive = higher. Where a SMILES comes first, the peptide text is derived from it. [ ]: non-standard residue; d: D form. The star is where a group is joined. Phe(4-NO2) = N[CH](Cc1ccc([N+](=O)[O-])cc1)C(=O)O; Boc = CC(C)(C)OC(=O)*; OtBu = CC(C)(C)O*

Tests used:
Assay in all cases: inhibition of tumour cell growth, NCI panel, 48 h
786-0 = test system: 786-0
HCT-15 = test system: HCT-15
Malme-3M = test system: Malme-3M
MCF7 = test system: MCF7
M14 = test system: M14
SF-268 = test system: SF-268
U-251 = test system: U-251
OVCAR-5 = test system: OVCAR-5
NCI/ADR-RES = test system: NCI/ADR-RES
SNB-19 = test system: SNB-19
SK-OV-3 = test system: SK-OV-3
MDA-MB-435 = test system: MDA-MB-435
MDA-MB-231 = test system: MDA-MB-231
Hs-578T = test system: Hs-578T
NCI-H460 = test system: NCI-H460
SK-MEL-2 = test system: SK-MEL-2
HCC 2998 = test system: HCC 2998
MOLT-4 = test system: MOLT-4
UACC-62 = test system: UACC-62
HOP-92 = test system: HOP-92

Measured: GI50

CC[C@@H]1C[C@@H](O)[C@@H]2[C@H](O)[C@H](O)CN2C1
inactive: 786-0 > 100 µM | Malme-3M > 100 µM | MCF7 > 100 µM | M14 > 100 µM | SF-268 > 100 µM | U-251 > 100 µM | OVCAR-5 > 100 µM | NCI/ADR-RES > 100 µM | SNB-19 > 100 µM | SK-OV-3 > 100 µM | MDA-MB-435 > 100 µM | MDA-MB-231 > 100 µM | Hs-578T > 100 µM | NCI-H460 > 100 µM | SK-MEL-2 > 100 µM | HCC 2998 > 100 µM | MOLT-4 > 100 µM | UACC-62 > 100 µM | HOP-92 > 100 µM
> 100 µM: HCT-15

COC(=O)C(Cc1ccc([N+](=O)[O-])cc1)NC(=O)C(CC(=O)OC(C)(C)C)NC(=O)OC(C)(C)C (stereo not given) (Boc-Asp(OtBu)-[Phe(4-NO2)]-OMe; configuration not given here)
> 100 µM: HCT-15
inactive: 786-0 > 100 µM | Malme-3M > 100 µM | MCF7 > 100 µM | M14 29.4 µM | SF-268 > 100 µM | U-251 > 100 µM | OVCAR-5 > 100 µM | NCI/ADR-RES > 100 µM | SNB-19 > 100 µM | SK-OV-3 > 100 µM | MDA-MB-435 > 100 µM | MDA-MB-231 25.8 µM | Hs-578T 20.1 µM | NCI-H460 > 100 µM | SK-MEL-2 > 100 µM | HCC 2998 35.2 µM | MOLT-4 66.8 µM | UACC-62 > 100 µM | HOP-92 > 100 µM
